Laboratory results from article PMC5375154, “Atypical protein disulfide isomerases (PDI): Comparison of the molecular and catalytic properties of poplar PDI-A and PDI-M with PDI-L1A” (PLoS ONE, 2017).

Key:
PDI-M (PtPDI-M) = target: T1, PDI-M (PtPDI-M) (Populus trichocarpa, UniProt B9IAL5); assay: NADPH/AtNTRB-coupled DTNB reduction, absorbance at […] nm; format: biochemical; conditions: 200 μM NADPH, 2 μM AtNTRB, 100 μM DTNB, 0.2 μM PDI, pH 8.0, 25°C
T1 construct: gene POPTR_014G160000; pET-15b, His-tagged; E. coli BL21(DE3) pSBET; a°-a-b organisation
T1 sequence (B9IAL5 25-434): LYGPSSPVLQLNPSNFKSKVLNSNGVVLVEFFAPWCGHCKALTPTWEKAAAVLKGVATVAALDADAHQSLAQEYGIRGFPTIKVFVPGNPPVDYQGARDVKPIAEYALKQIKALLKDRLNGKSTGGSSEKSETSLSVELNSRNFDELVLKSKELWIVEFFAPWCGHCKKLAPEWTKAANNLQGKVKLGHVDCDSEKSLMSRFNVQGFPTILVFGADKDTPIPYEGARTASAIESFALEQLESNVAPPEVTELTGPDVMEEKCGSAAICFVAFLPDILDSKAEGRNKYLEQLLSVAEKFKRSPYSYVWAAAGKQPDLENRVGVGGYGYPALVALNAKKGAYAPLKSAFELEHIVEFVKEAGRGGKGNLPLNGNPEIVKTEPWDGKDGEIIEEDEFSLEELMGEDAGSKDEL

PDI-A (PtPDI-A) = target: T2, PDI-A (PtPDI-A) (Populus trichocarpa, UniProt B9HQP9); assay: UV-visible absorption, iron and sulfide quantification, size-exclusion chromatography; format: binding; conditions: as isolated after E. coli expression, anaerobic purification; pH 8.0; cluster proposed to bridge a dimer; cluster type not definitively assigned
T2 construct: gene POPTR_009G004500; pET-15b, His-tagged; E. coli BL21(DE3) pSBET; purified anaerobically; ca 15 kDa; dimeric and probable octameric forms; WCKHC active site
T2 sequence (B9HQP9 27-147): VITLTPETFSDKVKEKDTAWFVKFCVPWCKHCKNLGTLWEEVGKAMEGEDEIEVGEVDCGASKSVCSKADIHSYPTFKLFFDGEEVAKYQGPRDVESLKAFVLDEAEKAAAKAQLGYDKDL

Structure (SMILES)	DTNB reduction activity (PDI-M (PtPDI-M))	UV-visible absorption, iron and sulfide quantification, size-exclusion chromatog (PDI-A (PtPDI-A))
O=C(O)c1cc(SSc2ccc([N+](=O)[O-])c(C(=O)O)c2)ccc1[N+](=O)[O-] [DTNB]	PDI-L1a was more efficient than PDI-M and PDI-A was inactive (Fig 2C)	
[S]1[Fe][S][Fe]1 [[Fe2S2] cluster]		results could be consistent with PDI-A binding a [Fe2S2] cluster into a dimer
